The record followed here is ChEMBL document CHEMBL1147715, “Gatifloxacin derivatives: synthesis, antimycobacterial activities, and inhibition of Mycobacterium tuberculosis DNA gyrase” (Bioorg Med Chem Lett, 2006).

≈ marks a conversion by molar mass, not a printed value.

The term MIC denotes the lowest concentration found to suppress growth. Low readings indicate a more susceptible organism, high ones a less susceptible organism.

In the test the test system is Mycobacterium tuberculosis. The experiment in a line: Antimycobacterial activity against multi-drug resistant Mycobacterium tuberculosis. The format is functional.
`COc1c(N2CCN(Cn3c(O)c(/N=N/C(N)=O)c4ccccc43)C(C)C2)c(F)cc2c(=O)c(C(=O)O)cn(C3CC3)c12` (configuration not stated) yielded a minimum inhibitory concentration (MIC) of 0.05 µg/mL (≈ 0.0845 µM).
Then `COc1c(N2CCN(Cn3c(O)c(/N=N/C(=N)S)c4cc(Cl)ccc43)C(C)C2)c(F)cc2c(=O)c(C(=O)O)cn(C3CC3)c12` (configuration not stated), with 0.78 µg/mL (≈ 1.21 µM).
Then `COc1c(N2CCN(CN3C(=O)/C(=N\c4ccc(S(=O)(=O)Nc5ncccn5)cc4)c4cc(Cl)ccc43)C(C)C2)c(F)cc2c(=O)c(C(=O)O)cn(C3CC3)c12` (configuration not stated), with 0.1 µg/mL (≈ 0.125 µM).
`COc1c(N2CCN(Cn3c(O)c(/N=N/C(=N)S)c4ccccc43)C(C)C2)c(F)cc2c(=O)c(C(=O)O)cn(C3CC3)c12` (configuration not stated) registered a minimal inhibitory concentration (MIC) of 0.2 µg/mL (≈ 0.329 µM).
With `COc1c(N2CCN(CN3C(=O)/C(=N\c4ccc(S(=O)(=O)Nc5ncccn5)cc4)c4ccccc43)C(C)C2)c(F)cc2c(=O)c(C(=O)O)cn(C3CC3)c12` (configuration not stated) the figure was 0.1 µg/mL (≈ 0.13 µM); with `COc1c(N2CCN(Cn3c(O)c(/N=N/C(N)=O)c4cc(Cl)ccc43)C(C)C2)c(F)cc2c(=O)c(C(=O)O)cn(C3CC3)c12` (configuration not stated), 0.78 µg/mL (≈ 1.25 µM).
With `COc1c(N2CCN(Cn3c(O)c(/N=N/C(=O)c4ccncc4)c4cc(F)ccc43)C(C)C2)c(F)cc2c(=O)c(C(=O)O)cn(C3CC3)c12` (configuration not stated) the figure was 0.78 µg/mL (≈ 1.16 µM); with `COc1c(N2CCN(Cn3c(O)c(/N=N/C(=O)c4ccncc4)c4cc(C)ccc43)C(C)C2)c(F)cc2c(=O)c(C(=O)O)cn(C3CC3)c12` (configuration not stated), 0.78 µg/mL (≈ 1.17 µM); with `COc1c(N2CCN(CN3C(=O)/C(=N\c4ccc(S(=O)(=O)Nc5ncccn5)cc4)c4cc(C)ccc43)C(C)C2)c(F)cc2c(=O)c(C(=O)O)cn(C3CC3)c12` (configuration not stated), 0.78 µg/mL (≈ 0.999 µM).
Then `COc1c(N2CCN(Cn3c(O)c(/N=N/C(=N)S)c4cc(C)ccc43)C(C)C2)c(F)cc2c(=O)c(C(=O)O)cn(C3CC3)c12` (configuration not stated), with 0.78 µg/mL (≈ 1.25 µM); and `COc1c(N2CCN(CN3C(=O)/C(=N\c4ccc(S(=O)(=O)Nc5ncccn5)cc4)c4cc(F)ccc43)C(C)C2)c(F)cc2c(=O)c(C(=O)O)cn(C3CC3)c12` (configuration not stated), with 0.1 µg/mL (≈ 0.127 µM).
With `COc1c(N2CCN(Cn3c(O)c(/N=N/C(=O)c4ccncc4)c4ccccc43)C(C)C2)c(F)cc2c(=O)c(C(=O)O)cn(C3CC3)c12` (configuration not stated), the lowest concentration to inhibit growth (MIC) was 0.2 µg/mL (≈ 0.306 µM).
Then `COc1c(N2CCN(Cn3c(O)c(/N=N/C(=N)S)c4cc(F)ccc43)C(C)C2)c(F)cc2c(=O)c(C(=O)O)cn(C3CC3)c12` (configuration not stated), with 0.1 µg/mL (≈ 0.16 µM).
Then `COc1c(N2CCN(Cn3c(O)c(/N=N/C(N)=O)c4cc(F)ccc43)C(C)C2)c(F)cc2c(=O)c(C(=O)O)cn(C3CC3)c12` (configuration not stated), with 0.2 µg/mL (≈ 0.328 µM).
With `COc1c(N2CCN(Cn3c(O)c(/N=N/C(N)=O)c4cc(C)ccc43)C(C)C2)c(F)cc2c(=O)c(C(=O)O)cn(C3CC3)c12` (configuration not stated) the figure was 0.78 µg/mL (≈ 1.29 µM); with `COc1c(N2CCN(Cn3c(O)c(/N=N/C(=O)c4ccncc4)c4cc(Cl)ccc43)C(C)C2)c(F)cc2c(=O)c(C(=O)O)cn(C3CC3)c12` (configuration not stated), 0.78 µg/mL (≈ 1.13 µM); with `COc1c(N2CCNC(C)C2)c(F)cc2c(=O)c(C(=O)O)cn(C3CC3)c12` (configuration not stated) [GATIFLOXACIN], 3.12 µg/mL (≈ 8.31 µM).
